According to US5863763A (British Technology Group Ltd., priority 1994, dated 1999):
Square brackets hold non-standard residues; d marks the D form. Ends that are not written are not given here. Peptide text beside a SMILES is read from it. Hyp = O=C(O)[C@@H]1C[C@@H](O)CN1

Tests used:
[1] = pooled haemolymph of C. vomitoria in insect Ringer's solution containing Hepes buffer, pH 7.0; settings: C. vomitoria (10 vitellogenic females), 24° C., up to 24 hours
[2] = pooled haemolymph of P. americana in insect Ringer's solution containing Hepes buffer, pH 7.0; settings: P. americana (3-4 ootheca-carrying females), 24° C., up to 24 hours
[3] = pooled haemolymph of 10 vitellogenic females in insect Ringer's solution containing Hepes buffer; settings: C. vomitoria, 24° C., up to 24 hours
[4] = format: in vitro ADME, Periplaneta americana; settings: for peptide remaining after incubation with haemolymph: 24 h
Method: Degradation of the Met-callatostatins induced by the haemolymph was assessed by measuring the difference between the amount of added peptide at the start of the incubation period and the total immunoassayable material present at its conclusion. Since the radioimmunoassay (RIA) is carboxy-terminal specific, any degradation at the carboxy-terminus, as for example by metalloendopeptidases able to cleave the Phe-Gly bond (Lamango et al in Insect Biochem. Mol. Biol. 23, 801-808 (1993)), would render the molecule non-immunoreactive. On the other hand partial amino-terminus degradation would result in peptides able to bind to the anti-Met-callatostatin antibodies present in the RIA solution. The mixture remaining after incubation would, therefore, contain all intact molecules and any degradation products with a carboxy-terminus of sufficient length to cross-react within the RIA. Experiments were carried out in an insect Ringer's solution containing Hepes buffer (Holman et al in Insect Biochem 21 107-112 (1991)) at 24° C. and pH 7.0 over several time periods from 15 minutes to 24 hours. In some experiments EDTA (10 mM final concentration) was added with the purpose of inhibiting metalloendopeptidases. For both C. vomitoria and P. americana 1 μl of a […] peptide solution was added to 20 μl of Ringer's solution and 15 μl pooled haemolymph. For C. vomitoria 15 μl was taken from the pooled haemolymph of 10 vitellogenic females, and for P. americana the same volume was obtained from 3-4 ootheca-carrying females. At the conclusion of the incubation period 5 μl of an 8% solution of trichloroacetic acid was added to stop the degradation process. The mixture was centrifuged for 1 minute, an 40 μl of the supernatant was added to 20 μl of water, 0.1% trifluoroacetic acid (TFA) prior to chromatography. Chromatography was carried out on a Kromasil™ (Technicol) C18 250×4.6 mm, 5 μm, 300 Å column with a gradient of 0-30% CH3 CN, 0.1% TFA at a flow rate of 1 ml/min with a rate of change of 1.0%/min. Fractions that were immunoreactive in the Met-callatostatin RIA were rechromatographed on a Delta Pak™ (Waters) C18 250×2.1 mm, 5 μm, 300 Å column with a gradient of 10-30% CH3 CN, 0.1% TFA at a flow rate of 0.2 ml/min with a rate of change of 0.5%/min. Peaks of Met-callatostatin-immunoreactive material were measured by RIA, and amino acid sequences were determined.

[5] = tested on: Juvenile Hormone III release from corpora allata of virgin P. americana; experiment: Radiochemical assay, inhibition of JH III release from isolated corpora allata of P. americana; format: cell-based, Periplaneta americana; settings: 4- to 6-day-old virgin females, three hour incubations, read-out: IC50, inhibition of JH release from isolated CA
Method: (§1) Peptides identified from the extracts were synthesized (Affinity Research Products) and tested in radiochemical assays to determine their effects on the synthesis and release of juvenile hormone bisepoxide from the isolated CA of vitellogenic female C. vomitoria. Similar assays were also carried out on the CA of the cockroaches P. americana (4- to 6-day-old virgin females) and B. germanica (6-day-old virgin females). Details of the methods used have been published previously (C. vomitoria in Duve et al in Proc. Nat'l. Acad. Sci. USA 90 2456-2460 (1993), P. americana in Weaver et al in C Comp. Pharmacol. Toxicol. 107, 119-127 (1994), and Weaver, R. C. in J. Insect Physiol. 37, 111-118 (1991), and B. germanica in Piulachs et al in A Comp. Physiol. 102, 477-480 (1992). For C. vomitoria and P. americana the donor methyl group for incorporation into the JH was provided by L-[methyl-^14 C]methionine, 2.04 GBq/mmol (Amersham International plc), added to methionine-free TCC 199 medium to give a final concentration of 260 μM and for B. germanica by L-[methyl-^3 H]methionine, 3.03 TBq/mmol (Amersham) added to TCC 199 medium containing methionine to achieve a concentration of 100 μM and a final specific activity of 7.4 GBq/mmol.
For comparison, the activity of Met-callatostatin was also assayed. […]

[6] = tested on: JH release from CA of B. germanica; experiment: Radiochemical assay, inhibition of JH release from isolated corpora allata of B. germanica; format: cell-based, Blattella germanica; settings: results not shown
Method: as §1

[7] = tested on: juvenile hormone bisepoxide release from the CA of C. vomitoria; experiment: Radiochemical assay, release of juvenile hormone bisepoxide from isolated CA of C. vomitoria; format: cell-based, Calliphora vomitoria; settings: results not shown
Method: as §1

hindgut of C. vomitoria = experiment: Inhibition of peristalsis of the hindgut (ileum) of C. vomitoria; parameters: species or system Calliphora vomitoria; settings: for inhibition of normal peristaltic movements of the ileum: at 1 μm, normal movements 9-10/min
Method: Adult female C. vomitoria were fed sugar, water and meat for 7 days prior to studying the effect of synthetic peptides (Affinity Research Products Ltd, Nottingham) on gut motility. The stage of development of the oocytes of each fly was recorded to provide a physiological base line. The gut and reproductive system were transferred to a 100-μl Sylgard chamber (Sylgard 184, Dow Corning) and bathed in a Calliphora Ringer's solution (Duve et al in Regul. Pept. 35 145-159 (1991)). Peristaltic movements of the ileum and the other forms of contraction in the rest of the gut and reproductive musculature were observed under a microscope. The preparation was superfused with several washes of Ringer's solution, after which peristaltic movements of the ileum were counted over a 2-minute period. The bathing fluid was replaced with fresh Ringer's solution containing the test peptide and the counting repeated. This procedure could be carried out many times for a single preparation.
Peptide solutions were made up in Ringer's solution on the day of the experiments, which were carried out at 22° C. Approximately 50 female flies were used.
Each point represents the mean of 5-16 measurements from a number of different vitellogenic female flies (callatostatin is abbreviated to cast in the figure).

[8] = tested on: Met-callatostatin antisera; experiment: Liquid-phase absorption of Met-callatostatin antisera (ICC control); format: binding, rabbit; settings: at 50 μM
Text: A variety of tissues including brain, corpora cardiaca-CA-hypocerebral ganglion complex, thoracicoabdominal ganglion, and the entire gut were fixed in aqueous Bouin's fluid, embedded in paraffin, and sectioned at 6 μm (Duve et al in Cell Tissue Res. 251, 399-415 (1988)). The peroxidase-antiperoxidase method of Sternberger (publ. "Immunocytochemistry" 1974)) was used in combination with the three Met-callatostatin antisera, from rabbits D1, D2 and D3, each of which gave essential, the same results. The results presented here were obtained mainly with antiserum from rabbit D1 bleed 5 used at a concentration of 1:2000 for 24 h at 4° C. Other tissues, including the brain, thoracicoabdominal ganglion, and the gut, complete with its neural connections, were fixed in 4% paraformaldehyde for whole-mount studies using the indirect immunofluorescence technique with either UV or confocal laser scanning microscopy. After fixation, tissues were washed in phosphate-buffered saline and permeabilized in methanol in phosphate-buffered saline. The tissues were washed in phosphate-buffered saline containing 0.2% bovine serum albumin and Triton X-100 (PBT buffer). Incubation of tissues with the Met-callatostatin antisera was at 4° C. over 24 h. […]

Compound	fragment found [1]	fragment found [2]	fragment found [3]	degradation by enzymes in the haemolymph of cockroaches [4]	IC50 [5]	IC50 [6]	effect on the release of juvenile hormone bisepoxide from the CA [7]	inhibition of normal peristaltic movements of the ileum (hindgut of C. vomitoria)	IC50 (hindgut of C. vomitoria; monophasic dose-response curve)	cleavage product identified after incubation [4]	degradation in haemolymph [4]	peptide remaining after incubation with haemolymph [4]	abolition of immunostaining by absorption of antisera [8]
GPPYDFGM-NH2	oxidised form of the parent compound, 2-hour	Tyr-Asp-Phe-Gly-Met-NH2 (SEQ ID NO:9), 2-hour	oxidised form of the parent compound	–	–	–	–	–	–	–	–	–	–
CSCC[C@H](NC(=O)CNC(=O)[C@H](Cc1ccccc1)NC(=O)[C@H](CC(=O)O)NC(=O)[C@H](Cc1ccc(O)cc1)NC(=O)[C@@H]1CCCN1C(=O)[C@@H]1C[C@@H](O)CN1C(=O)CN)C(N)=O [[Hyp^2]Met-callatostatin, Gly-Hyp-Pro-Tyr-Asp-Phe-Gly-Met-NH2] (H-G[Hyp]PYDFGM-NH2)	–	–	–	not	–	–	–	–	–	–	–	–	–
GP[Hyp]YDFGM-NH2	oxidised form of the parent compound, 2-hour	–	oxidised form of the parent compound	–	–	–	–	–	–	–	–	–	–
GPPYDFGM-NH2 [Met-callatostatin, Gly-Pro-Pro-Tyr-Asp-Phe-Gly-Met-NH2]	–	–	–	able to degrade	0.1 nM	1000 nM	neither peptide had any effect	completely inhibited	100 nM	Tyr-Asp-Phe-Gly-Met-NH2	degraded to approximately the same extent as in C. vomitoria	less than 10%	abolished the immunostaining
CSCC[C@H](NC(=O)CNC(=O)[C@H](Cc1ccccc1)NC(=O)[C@H](CC(=O)O)NC(=O)[C@H](Cc1ccc(O)cc1)NC(=O)[C@@H]1C[C@@H](O)CN1C(=O)[C@@H]1CCCN1C(=O)CN)C(N)=O [[Hyp^3]Met-callatostatin, Gly-Pro-Hyp-Tyr-Asp-Phe-Gly-Met-NH2] (H-GP[Hyp]YDFGM-NH2)	–	–	–	not	0.1 nM	1000 nM	neither peptide had any effect	completely inhibited	–	not	more resistant	less than 10%	abolished the immunostaining
